The source of these data is PubChem BioAssay (NCI).

What all share (experiment): growth of human tumour cells (NCI), 48 h
In assay [1] the test system is ACHN renal.
Assay [2] has as its system KM20L2 colon.
Assay [3] has as its system LOX IMVI melanoma.
The test system of assay [4] is LXFL 529 NSCLC.
Assay [5] has as its system NCI-H226 lung.
Assay [6] concerns NCI-H460 lung.
Assay [7] deals with RXF 393 renal.
The subject of assay [8] is U251 CNS.
Assay [9] deals with UO-31 renal.

Each structure is given as a SMILES string.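 Values below derive from 48-hour exposures of cells grown in 96-well plates, with endpoints linearly interpolated between the two concentrations bracketing the appropriate inhibition level. TGI: total growth inhibition.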

In the case of `CC1=C(C(=O)NCc2ccccc2)C(c2ccccc2C)C(C(=O)NCc2ccccc2)=C(C)N1`, the TGI in assay [1] was 38.4 µM; in assay [2] it was greater than 75.5 µM; in assay [3], 35.7 µM; in assay [4] it was greater than 95.9 µM; in assay [5] it was greater than 84.6 µM; in assay [6], 45.9 µM. Besides, the TGI in [7] is 43.7 µM; in assay [8] it was 68.3 µM; in [9], greater than 93.3 µM.

Turning to `COc1cc2c(cc1O)CN1CCC23C=C[C@@H](O)CC13` (stereo not given in full), the TGI in assay [1], in assay [2], in [3], in assay [4], in [5] and in [6] was greater than 100 µM throughout. The TGI in assay [7], in assay [8] and in [9] was greater than 100 µM in each case.

For the compound `Cc1cc(=O)n(-c2c(C)cccc2Cl)c(/C=C(\O)c2ccncc2)n1`, the TGI in assay [1], in assay [2], in [3], in assay [4], in assay [5] and in assay [6] was greater than 100 µM throughout. Also, the TGI in [7], in assay [8] and in [9] was greater than 100 µM in each case.

On to `CC(=O)OCC1OC(OCc2ccccc2)C(Br)C(OC(C)=O)C1OC(C)=O` (stereo not given), for which the TGI in assay [1], in assay [2], in assay [3], in assay [4], in assay [5] and in assay [6] was greater than 100 µM in each case. The TGI in [7] and in assay [8] was greater than 100 µM in each case.

Take `CCOc1ccc(OCC)c([P+](c2ccccc2)(c2ccccc2)c2ccccc2)c1`: the TGI in assay [1] was 10.5 µM; in [2], 4.13 µM; in [3], 3.1 µM; in assay [4], 10.4 µM; in [5] it was 3.24 µM; in assay [6], 11.6 µM. The TGI in assay [7] was determined as 15.7 µM; in assay [8], 10.8 µM.

Consider `COc1ccc2c(c1)[n+](=O)c(C(=O)C/C(=N/NC(=O)C[N+](C)(C)C)C(=O)Nc1cccc(C)c1C)c(C)n2O`, for which the TGI in assay [1], in [2], in assay [4], in assay [5], in assay [6] and in [7] was greater than 100 µM throughout. The TGI in assay [8] and in assay [9] was greater than 100 µM throughout.

Turning to `COC1OC(CBr)C(OC(=O)c2ccccc2)C(OS(=O)(=O)c2ccc(C)cc2)C1Br` (stereo not given), the TGI in assay [1], in assay [2], in [3], in assay [4], in assay [6] and in assay [7] was greater than 100 µM each time. Besides, the TGI in assay [8] and in [9] was greater than 100 µM throughout.

As for `O=C(N/C(=C\c1ccccc1Cl)c1nc2ccccc2[nH]1)c1ccccc1`, the TGI in assay [1] was greater than 100 µM; in assay [2], greater than 100 µM; in [4] it was greater than 100 µM; in assay [7] it was 91.5 µM; in assay [8], greater than 100 µM; in assay [9], 44.8 µM.

Turning to `CN(NC1OC(CO)C(O)C(O)C1O)c1ccccc1` (stereo not given), the TGI in assay [1], in [2], in assay [3], in assay [4], in [5] and in [6] was greater than 100 µM throughout. Moreover, the TGI in assay [7] and in [8] was greater than 100 µM each time.

As to `CN(C)C(=O)NC(=S)N(C)C`, the TGI in assay [1], in [2], in assay [4], in [5], in assay [6] and in assay [7] was greater than 100 µM each time. Also, the TGI was 14 µM in [8] and greater than 100 µM in assay [9].

Regarding `CCCCCCCCCCCCCCCCc1c(C(=O)OC)nc(NN)[nH]c1=O`, the TGI in assay [1], in [2], in assay [3], in assay [4], in [6] and in assay [7] was greater than 50 µM each time. Moreover, the TGI in assay [8] and in assay [9] was greater than 50 µM each time.

With `CCN(CC)CC(=O)NC1c2ccccc2Oc2c(C)cccc21` (stereo not given), the TGI in assay [1], in [2], in [3], in assay [4], in assay [5] and in [6] was greater than 100 µM throughout. Also, the TGI in assay [7] and in [9] was greater than 100 µM each time.

Turning to `COc1ccc(-c2ccccc2)c2[nH]c3c(c12)CCNC3=O`, the TGI in assay [2], in assay [3], in assay [4], in assay [5], in assay [6] and in assay [7] was greater than 100 µM each time. Also, the TGI in [8] and in assay [9] was greater than 100 µM each time.
